Measured values from patent publication US4665088A, “(E-Z)-4,5,9-trithiadodeca-1,6,11-triene 9-oxides” (The Research Foundation of State University of New York, priority 1984, dated 1987).
Where two headings read alike, the source gives them in different places.

Assays:
Assay type in all cases: cell-based
[1] = system: ADP-induced platelet aggregation (platelet rich, citrated, human blood plasma); experiment: Inhibition of ADP-induced aggregation of platelets in platelet rich, citrated human blood plasma; conditions: ADP (10 μmole), read-out: ID50 (the source's name)
From the text: Though the compounds of this invention have multiple uses such as for example as bacteriocides and fungicides, a particularly important utility is as an antithrombotic agent. Various chemicals are known to cause blood platelets to aggregate which in turn can result in blood clots in the blood circulatory system of living systems. Certain other compounds are known to prevent blood platelet aggregation and accordingly are known herein as antithrombotic agents, while other compounds prevent clotting of aggregated platelets and are called anticoagulants. Both are used in the treatment of phlebitis, stroke, coronary thrombosis and arteriosclerosis. […] The effectiveness of the suspected antithrombotic is compared to a control which has been treated with the agonist but which has not been treated with the antithrombotic and a quantitative measure of effectiveness is determined by ascertaining the concentration of suspected antithrombotic necessary to reduce by 50% the extent of platelet aggregation compared to the control. […]
Platelet rich, citrated, human blood plasma (250,000 platelets/μL) was prepared and divided into 0.45 ml. aliquots for use in determining ID50 levels of the subject compounds. The aliquots were treated with various quantities of (E)-ajoene, (Z)-ajoene, mixed (E,Z)-ajoene and mixed (E,Z)-ajoene together with prostacyclin and indomethacin. […]

[2] = system: collagen-induced platelet aggregation (platelet rich, citrated, human blood plasma); experiment: Inhibition of collagen-induced aggregation of platelets in platelet rich, citrated human blood plasma
From the text: (§1) Though the compounds of this invention have multiple uses such as for example as bacteriocides and fungicides, a particularly important utility is as an antithrombotic agent. Various chemicals are known to cause blood platelets to aggregate which in turn can result in blood clots in the blood circulatory system of living systems. Certain other compounds are known to prevent blood platelet aggregation and accordingly are known herein as antithrombotic agents, while other compounds prevent clotting of aggregated platelets and are called anticoagulants. Both are used in the treatment of phlebitis, stroke, coronary thrombosis and arteriosclerosis. In a typical test to determine antithrombotic activity, the suspected antithrombotic chemical is mixed with a suspension of blood platelets, incubated for a few minutes, and then the suspension is treated with a known amount of a known agonist (agent inducing aggregation). The effectiveness of the suspected antithrombotic is compared to a control which has been treated with the agonist but which has not been treated with the antithrombotic and a quantitative measure of effectiveness is determined by ascertaining the concentration of suspected antithrombotic necessary to reduce by 50% the extent of platelet aggregation compared to the control. This measurement is termed the ID50 of the antithrombotic. Typical agonists include collagen and ADP (adenosine diphosphate).
Platelet rich, citrated, human blood plasma (250,000 platelets/μL) was prepared and divided into 0.45 ml. aliquots for use in determining ID50 levels of the subject compounds. The aliquots were treated with various quantities of (E)-ajoene, (Z)-ajoene, mixed (E,Z)-ajoene and mixed (E,Z)-ajoene together with prostacyclin and indomethacin. A control was maintained free of antithrombotic. The thus treated aliquots were pre-incubated by maintaining in an aggregometer cuvette for 2 minutes at 37° C. with stirring (950 RPM). Each aliquot was then further treated with an appropriate amount of ADP (10 μmole) or collagen (1 μg/ml or 2 μg/ml). Aggregation in each aliquot was monitored for a period of 3-5 minutes and percentage aggregation was quantitated by a dual channel aggregometer which ascertained percent aggregation by comparison against a control of light transmittance through the sample.

[3] = system: platelet aggregation; experiment: Antithrombotic/anticoagulant activity (general statement); conditions: for antithrombotic activity when combined with the compounds of the invention: combined with the compounds of the instant claimed invention
From the text: as §1

[4] = COLLAGEN (2 μg/ml), read-out: ID50 (the source's name)
[5] = COLLAGEN (1 μg/ml), (E,Z)-ajoene 70:30 together with Prostacyclin (aliquot 5), read-out: ID50 (the source's name)
[6] = COLLAGEN (1 μg/ml), antithrombotic alone, read-out: ID50 (the source's name)

IC50 [1] [µM] | IC50 [2, 4] [µM] | IC50 [2, 5] [µM] | IC50 [2, 6] [µM] | SMILES | antithrombotic activity when combined with the compounds of the invention [3] | further results
188 ± 38 | 196 ± 64 |  |  | C=CCSS/C=C\C[S+]([O-])CC=C (stereo not shown) [(Z)-ajoene] |  | 
 |  |  |  | COc1ccc2c(c1)c(CC(=O)O)c(C)n2C(=O)c1ccc(Cl)cc1 [Indomethacin, reference compound] | particularly enhanced antithrombotic activity | IC50 ([2]; read-out: ID50): 0.2 µM
 |  | 0.001 | 0.001 | CCCCC[C@H](O)/C=C/[C@@H]1[C@H]2C/C(=C/CCCC(=O)O)O[C@H]2C[C@H]1O [Prostacyclin, reference compound] | particularly enhanced antithrombotic activity | 
213 | 243 ± 90 |  |  | C=CCSS/C=C/C[S+]([O-])CC=C (stereo not shown) [(E)-ajoene] |  | 
 |  | 2.3 | 92 | C=CCSSC=CC[S+]([O-])CC=C (stereo not shown) [(E,Z)-ajoene, (E,Z)-4,5,9-trithiadodeca-1,6,11-triene 9-oxide] |  | IC50 ([2]; COLLAGEN (1 μg/ml), (E,Z)-ajoene 70:30 together with Indomethacin (aliquot 7), read-out: ID50 (the source's name)): 4.5 µM; antithrombotic activity [3]: significant antithrombotic activity
